Legend:
[1] = Rat pharmacokinetics, intravenous injection 1 mg/kg; type: in vivo, Sprague Dawley rats; details: for AUC0-7 h / AUC0-7 h of mono-methyl metabolite: n=2, plasma, mean; for AUC0-7 h: dosed parent compound; for AUC0-7 h of mono-methyl metabolite: IV 1 mg/kg of the parent (Example 1 or Comparator A), metabolite measured
Description: (§1) The plasma was separated, frozen and later analyzed. […] In the case of Comparator A the plasma was analyzed for Comparator A and its mono-methyl metabolite, Comparator B. The quantitation of each metabolite and its parent compound was done by LC-MS/MS with standard curves using authentic standards of each compound. The analysis allowed the characterization of the time-concentration profile and the calculation of pharmacokinetic (PK) parameters via non-compartmental methods.

[2] = Rat pharmacokinetics, oral gavage 5 mg/kg; type: in vivo, Sprague Dawley rats; details: for Cmax / Tmax / AUC0-7 h: PO 5 mg/kg; for Cmax / Tmax: n=3, dosed parent compound; for Cmax / Tmax / AUC0-7 h / AUC0-7 h of mono-methyl metabolite / Tmax of mono-methyl metabolite: mean; for AUC0-7 h / AUC0-7 h of mono-methyl metabolite: n=3, plasma; for AUC0-7 h: dosed parent compound; for AUC0-7 h of mono-methyl metabolite: PO 5 mg/kg of the parent (Example 1 or Comparator A), metabolite measured; for Tmax of mono-methyl metabolite: PO 5 mg/kg of the parent, n=3, metabolite measured
Description: as §1

CDK1/cyclin B = CDK1/cyclin B (Homo sapiens, UniProt P06493); assay: CDK1/cyclin B enzymatic activity assay (IMAP-FP); type: biochemical; details: 100 nM Tamra Histone-H1 peptide, 20 μM ATP, 120 min
Description: CDK1/Cyclin B Enzymatic Activity Assay A 384-well microtiter IMAP-FP™ (Molecular Devices Trade Mark Technology) endpoint assay was used for CDK1/cyclin B kinase activity measurements. The same assay was used for IC50 determination of small molecule inhibitors. […] No. R8139), 10 μL substrate mixture of Tamra Histone-H1 peptide (Molecular Devices, Cat. No. R7384) and ATP (Amersham Pharmacia, Cat. No. 27-2056-01) in the 1× Reaction Buffer with 1 mM DTT freshly added. […] All reactions were run at room temperature in black 384-well flat-bottom Costar plates (Corning, Cat. […] No. R8139).

CDK4/cyclin D1 = molecular target: T1, CDK4/cyclin D1 (Homo sapiens, UniProt P11802); assay: CDK4/cyclin D1 enzymatic activity assay (Lance TR-FRET); type: biochemical; details: 0.3 nM CDK4/cyclin D1, 175 nM pRb152, 3 μM ATP, 60 min
T1 construct: His6 (N); made in house; host or cells: Sf21 insect cells (baculovirus)
Description: The same assay was used for IC50 determination of small molecule inhibitors. In general, the kinase reactions were carried out in 30 μL volumes in the reaction solution containing the following: 2 uL compound (in 20% DMSO), 18 uL CDK4/cyclin D1 in Assay Buffer (50 mM HEPES, pH 7.5, 5 mM MgCl2, 2 mM MnCl2, 1 mM DTT, 0.05% BSA, 0.02% Tween-20), 10 uL of the mixture of pRb152 and ATP. […] All reactions were run at room temperature in 384-well white flat-bottom OptiPlates (Perkin Elmer, Cat. No. 6007290) for 60 min then were quenched by the addition of 10 μL of 120 mM EDTA. The signals were captured by the addition of 40 μL of the Detection Solution containing the following: Detection Buffer (50 mM HEPES, pH 7.5, 30 mM EDTA, 0.1% Triton x-100, 0.05% BSA), 70 ng/mL anti-phospho-pRb(S780) (Cell Signaling Technology, Cat. No. 9307S), 1 nM Lance Eu-W1024-Rabbit anti-IgG (Perkin Elmer, Cat. No. AD0082), and 20 nM SureLight™ Allophycocyanin-Streptavidin (Perkin Elmer, Cat. No. CR130-100). The resulted solutions were incubated at room temperature for 2 hours before read on the Evision Multilabel Reader (Perkin Elmer, Envision 2102-0010).

Sequence of CDK1/cyclin B (P06493 whole entry, species assumed): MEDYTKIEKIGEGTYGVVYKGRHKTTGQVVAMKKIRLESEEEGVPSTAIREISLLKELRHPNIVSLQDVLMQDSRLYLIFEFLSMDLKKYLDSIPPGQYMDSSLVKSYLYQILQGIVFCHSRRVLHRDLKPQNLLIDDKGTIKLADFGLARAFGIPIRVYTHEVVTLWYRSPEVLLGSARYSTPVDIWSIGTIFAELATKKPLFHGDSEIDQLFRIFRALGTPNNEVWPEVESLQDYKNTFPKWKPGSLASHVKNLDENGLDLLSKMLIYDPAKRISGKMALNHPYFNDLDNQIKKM
Sequence of CDK1/cyclin B (P14635 whole entry partner, species assumed): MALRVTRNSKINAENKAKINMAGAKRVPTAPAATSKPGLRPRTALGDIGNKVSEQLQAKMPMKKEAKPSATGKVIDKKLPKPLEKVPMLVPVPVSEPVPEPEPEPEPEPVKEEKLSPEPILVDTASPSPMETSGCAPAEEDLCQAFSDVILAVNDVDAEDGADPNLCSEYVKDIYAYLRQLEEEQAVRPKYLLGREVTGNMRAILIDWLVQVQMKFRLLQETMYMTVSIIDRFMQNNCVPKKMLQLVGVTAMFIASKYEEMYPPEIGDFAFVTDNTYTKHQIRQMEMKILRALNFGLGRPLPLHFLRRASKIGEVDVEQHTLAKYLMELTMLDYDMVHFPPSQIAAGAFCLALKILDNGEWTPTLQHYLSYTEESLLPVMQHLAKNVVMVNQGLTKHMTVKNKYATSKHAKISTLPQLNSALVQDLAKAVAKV
T1 sequence (P11802 whole entry): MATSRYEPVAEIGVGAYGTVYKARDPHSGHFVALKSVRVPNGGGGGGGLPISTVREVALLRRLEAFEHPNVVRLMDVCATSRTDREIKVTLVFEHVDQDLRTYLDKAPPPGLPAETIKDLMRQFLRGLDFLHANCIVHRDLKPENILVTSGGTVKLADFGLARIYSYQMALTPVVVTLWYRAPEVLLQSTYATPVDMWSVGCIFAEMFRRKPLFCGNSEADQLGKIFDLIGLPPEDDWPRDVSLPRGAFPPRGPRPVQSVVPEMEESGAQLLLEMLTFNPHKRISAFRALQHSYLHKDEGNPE
T1 sequence (P24385 whole entry partner): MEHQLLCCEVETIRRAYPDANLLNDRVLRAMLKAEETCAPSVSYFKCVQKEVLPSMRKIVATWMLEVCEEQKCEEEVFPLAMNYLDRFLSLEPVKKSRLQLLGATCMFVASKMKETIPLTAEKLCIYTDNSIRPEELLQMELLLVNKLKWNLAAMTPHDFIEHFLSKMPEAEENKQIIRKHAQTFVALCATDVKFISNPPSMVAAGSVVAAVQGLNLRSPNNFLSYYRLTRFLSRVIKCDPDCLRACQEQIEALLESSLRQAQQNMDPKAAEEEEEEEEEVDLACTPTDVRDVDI

Row | Compound | T½ ([1]; IV 1 mg/kg, n=2, mean) [h] | AUC0-7 h ([1]; IV 1 mg/kg) [µM·h] | Tmax [2] [h] | AUC0-7 h [2] [µM·h] | AUC0-7 h of mono-methyl metabolite [1] [µM·h] | AUC0-7 h of mono-methyl metabolite [2] [µM·h] | Tmax of mono-methyl metabolite [2] [h] | further results
1 | 7-cyclopentyl-2-(5-piperzin-1-yl-pyridin-2-ylamino)-7H-pyrrolo[2,3-d]pyrimidine-6-carboxylic acid dimethylamide-d5 [Example 1] | 3.2 | 0.883 | 2 | 2.432 | – | – | – | VDss higher than VDss of Comparator A ([1]; 1 mg/kg iv): approximately 1.6 fold; CL ([1]; IV 1 mg/kg, n=2, mean): 37 mL/min/kg; Vdss ([1]; IV 1 mg/kg, n=2, mean): 8.6 L/kg; Absolute oral bioavailability higher than Comparator A ([2]; 5 mg/kg po): 1.8 fold; F (absolute oral bioavailability) ([2]; PO 5 mg/kg vs IV 1 mg/kg): 55%; Cmax [2]: 549 nM; IC50 (CDK1/cyclin B; […] CDK1/cyclin B): > 15 µM
2 | CN(C)C(=O)c1cc2cnc(Nc3ccc(N4CCNCC4)cn3)nc2n1C1CCCC1 [Comparator A, 7-cyclopentyl-2-(5-piperazin-1-yl-pyridin-2-ylamino)-7H-pyrrolo[2,3-d]pyrimidine-6-carboxylic acid dimethylamide, reference compound] | 2.3 | 1.028 | 1.5 | 1.618 | – | – | – | clearance ([1]; Sprague Dawley, plasma, IV 1 mg/kg, n=2, mean): 34 mL/min/kg; Vd ([1]; Sprague Dawley, plasma, IV 1 mg/kg, n=2, mean, read-out: Vdss): 5.4 L/kg; bioavailability ([2]; Sprague Dawley, plasma, PO 5 mg/kg vs IV 1 mg/kg, read-out: F (absolute oral bioavailability)): 31%; Cmax ([2]; Sprague Dawley, plasma): 348 nM
3 | CNC(=O)c1cc2cnc(Nc3ccc(N4CCNCC4)cn3)nc2n1C1CCCC1 [Comparator B, 7-cyclopentyl-2-(5-piperazin-1-yl-pyridin-2-ylamino)-7H-pyrrolo[2,3-d]pyrimidine-6-carboxylic acid methylamide, reference compound] | – | – | – | – | 0.156 | 0.372 | 4.3 | –
4 | [2H]C([2H])([2H])NC(=O)c1cc2cnc(Nc3ccc(N4CCNCC4)cn3)nc2n1C1CCCC1 [Example 2, 7-cyclopentyl-2-(5-piperzin-1-yl-pyridin-2-ylamino)-7H-pyrrolo[2,3-d]pyrimidine-6-carboxylic acid methylamide-d3] | – | – | – | – | 0.066 | 0.128 | 3.3 | IC50 (CDK4/cyclin D1): 0.132 µM; IC50 (CDK1/cyclin B; 0.25 nM CDK1/cyclin B): > 15 µM

Source: patent US20130203765A1, “DEUTERATED PYRROLOPYRIMIDINE COMPOUNDS AS INHIBITORS OF CDK4/6” (Novartis AG, priority 2010, published 2013)
